In ChEMBL document CHEMBL4145686, “Discovery of a Potent and Selective Steroidal Glucocorticoid Receptor Antagonist (ORIC-101)” (J Med Chem, 2018):
Activity calls are given as the source filed them. The rule behind the calls is not given here.

Legend:
[1] = target: T1, Androgen receptor (Homo sapiens, UniProt P10275); assay: Agonist activity at AR in human LNAR cells assessed as increase in TMPRSS2 gene expression at 0.1 nM incubated for 24 hrs in presence of 1 uM enzalutamide by RT-qPCR method; assay type: cell-based; settings: 0.0001 µM
T1 sequence (P10275 whole entry): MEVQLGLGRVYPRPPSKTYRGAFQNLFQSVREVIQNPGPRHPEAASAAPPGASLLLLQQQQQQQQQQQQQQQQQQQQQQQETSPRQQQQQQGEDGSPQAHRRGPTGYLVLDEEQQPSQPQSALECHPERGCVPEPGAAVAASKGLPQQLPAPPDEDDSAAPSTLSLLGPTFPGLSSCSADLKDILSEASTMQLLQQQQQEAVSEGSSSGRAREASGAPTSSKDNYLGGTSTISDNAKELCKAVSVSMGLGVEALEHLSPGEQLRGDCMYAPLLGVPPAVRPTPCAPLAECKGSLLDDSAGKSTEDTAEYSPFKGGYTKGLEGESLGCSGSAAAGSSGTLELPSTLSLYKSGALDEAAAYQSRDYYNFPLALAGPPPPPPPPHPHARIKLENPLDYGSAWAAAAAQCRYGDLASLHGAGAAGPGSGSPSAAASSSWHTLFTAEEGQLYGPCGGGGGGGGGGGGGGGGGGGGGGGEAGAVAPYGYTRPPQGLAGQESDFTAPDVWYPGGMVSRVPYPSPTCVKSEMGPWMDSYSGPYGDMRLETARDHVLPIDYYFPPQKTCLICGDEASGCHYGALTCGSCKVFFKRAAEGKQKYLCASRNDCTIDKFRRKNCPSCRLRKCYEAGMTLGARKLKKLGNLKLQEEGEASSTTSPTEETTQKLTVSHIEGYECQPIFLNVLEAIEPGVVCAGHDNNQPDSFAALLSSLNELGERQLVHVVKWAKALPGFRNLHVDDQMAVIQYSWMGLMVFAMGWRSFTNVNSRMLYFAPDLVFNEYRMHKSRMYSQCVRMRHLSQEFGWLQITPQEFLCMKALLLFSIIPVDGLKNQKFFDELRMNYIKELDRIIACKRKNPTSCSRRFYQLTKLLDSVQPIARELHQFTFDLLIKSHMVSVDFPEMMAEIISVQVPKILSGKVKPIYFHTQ

[2] = target: T1, Androgen receptor; assay: Agonist activity at AR in human LNAR cells assessed as increase in PSA gene expression at 0.1 nM incubated for 24 hrs in presence of 1 uM enzalutamide by RT-qPCR method; assay type: cell-based; settings: 0.0001 µM
[3] = target: T1, Androgen receptor; assay: Agonist activity at AR in human LNAR cells assessed as increase in PSA gene expression at 0.1 nM incubated for 24 hrs by RT-qPCR method; assay type: cell-based; settings: 0.0001 µM
[4] = target: T1, Androgen receptor; assay: Agonist activity at AR in human LNAR cells assessed as increase in TMPRSS2 gene expression at 0.1 nM incubated for 24 hrs by RT-qPCR method; assay type: cell-based; settings: 0.0001 µM
[5] = tested on: OVCAR-5; settings: Homo sapiens, 100 mg/kg

SMILES	Activity [1]	Activity [2]	Activity [3]	Activity [4]	TGI [5]
C[C@]1(O)CC[C@H]2[C@@H]3CCC4=CC(=O)CCC4=C3C=C[C@@]21C [METRIBOLONE]	Not Active	Not Active	Active	Active	–
Nc1ccn([C@@H]2O[C@H](CO)[C@@H](O)C2(F)F)c(=O)n1	–	–	–	–	Active
